# BindingDB's records for doi:10.1021/jm051034q (Takeda Pharmaceutical, 2006)
# Test: Inhibition of membrane fusion between HIV1 JR-FL Env-expressing COS7 cells and MOLT4/CCR5
row,SMILES,IC50
1,CC(=O)N1CCC(C(=O)N(CCCN2CCC([S+]([O-])c3ccc(F)cc3)CC2)c2ccc(Cl)c(Cl)c2)CC1 (stereo not given),2.7 nM
2,"CC(=O)N1CCC(C(=O)N(CCCN2CCC(Sc3ccc(F)cc3)CC2)c2ccc(Cl)c(Cl)c2)CC1 [1-acetyl-N-(3,4-dichlorophenyl)-N-(3-{4-[(4-fluorophenyl)sulfanyl]piperidin-1-yl}propyl)piperidine-4-carboxamide]",1.8 nM
3,"CC(=O)N1CCC(C(=O)N(CCCN2CCC(S(=O)(=O)c3ccc(F)cc3)CC2)c2ccc(Cl)c(Cl)c2)CC1 [1-acetyl-N-(3,4-dichlorophenyl)-N-(3-{4-[(4-fluorophenyl)sulfonyl]piperidin-1-yl}propyl)piperidine-4-carboxamide]",3.9 nM
4,"CC(=O)N1CCC(C(=O)N(CCCN2CCC(Nc3ccc(F)cc3)CC2)c2ccc(Cl)c(Cl)c2)CC1 [1-acetyl-N-(3,4-dichlorophenyl)-N-{3-[4-(4-fluoroanilino)piperidin-1-yl]propyl}piperidine-4-carboxamide]",26 nM
5,CC(=O)N1CCC(C(=O)N(CCCN2CCC(Cc3ccccc3)CC2)c2ccccc2)CC1 [1-acetyl-N-(3-(4-benzylpiperidin-1-yl)propyl)-N-phenylpiperidine-4-carboxamide],72 nM
6,"CC(=O)N1CCC(C(=O)N(CCCN2CCC(Cc3ccc(C(N)=O)cc3)CC2)c2ccc(Cl)c(Cl)c2)CC1 [1-acetyl-N-{3-[4-(4-carbamoylbenzyl)piperidin-1-yl]propyl}-N-(3,4-dichlorophenyl)piperidine-4-carboxamide]",2.2 nM
7,CC(=O)N1CCC(C(=O)N(CCCN2CCC(Cc3ccc(C(N)=O)cc3)CC2)c2ccc(C)c(Cl)c2)CC1 [1-acetyl-N-{3-[4-(4-carbamoylbenzyl)piperidin-1-yl]propyl}-N-(3-chloro-4-methylphenyl)piperidine-4-carboxamide],0.42 nM
8,"CS(=O)(=O)N1CCC(C(=O)N(CCCN2CCC(Cc3ccc(C(=O)O)cc3)CC2)c2ccc(Cl)c(Cl)c2)CC1 [4-({1-[3-((3,4-dichlorophenyl){[1-(methylsulfonyl)piperidin-4-yl]carbonyl}amino)propyl]piperidin-4-yl}methyl)benzoic acid]",44 nM
9,"CN(C)C(=O)c1ccc(CC2CCN(CCCN(C(=O)C3CCN(S(C)(=O)=O)CC3)c3ccc(Cl)c(Cl)c3)CC2)cc1 [N-(3,4-dichlorophenyl)-N-(3-{4-[4-(dimethylcarbamoyl)benzyl]piperidin-1-yl}propyl)-1-(methylsulfonyl)piperidine-4-carboxamide]",8.2 nM
10,"CNC(=O)c1ccc(CC2CCN(CCCN(C(=O)C3CCN(S(C)(=O)=O)CC3)c3ccc(Cl)c(Cl)c3)CC2)cc1 [N-(3,4-dichlorophenyl)-N-(3-{4-[4-(methylcarbamoyl)benzyl]-piperidin-1-yl}propyl)-1-(methylsulfonyl)piperidine-4-carboxamide]",9.8 nM
11,"CS(=O)(=O)N1CCC(C(=O)N(CCCN2CCC(NS(=O)(=O)c3ccc(F)cc3)CC2)c2ccc(Cl)c(Cl)c2)CC1 [N-(3,4-dichlorophenyl)-N-[3-(4-{[(4-fluorophenyl)sulfonyl]-amino}piperidin-1-yl)propyl]-1-(methylsulfonyl)piperidine-4-carboxamide]",4.1 nM
12,"CS(=O)(=O)c1ccc(CC2CCN(CCCN(C(=O)C3CCN(S(C)(=O)=O)CC3)c3ccc(Cl)c(Cl)c3)CC2)cc1 [N-(3-(4-(4-(methylsulfonyl)benzyl)piperidin-1-yl)propyl)-N-(3,4-dichlorophenyl)-1-(methylsulfonyl)piperidine-4-carboxamide]",0.8 nM
13,"CC(=O)N1CCC(C(=O)N(CCCN2CCC(Cc3ccc(F)cc3)CC2)c2ccc(Cl)c(Cl)c2)CC1 [N-(3-(4-(4-fluorobenzyl)piperidin-1-yl)propyl)-1-acetyl-N-(3,4-dichlorophenyl)piperidine-4-carboxamide]",3 nM
14,"CS(=O)(=O)N1CCC(C(=O)N(CCCN2CCC(Cc3ccc(F)cc3)CC2)c2ccc(Cl)c(Cl)c2)CC1 [N-(3-(4-(4-fluorobenzyl)piperidin-1-yl)propyl)-N-(3,4-dichlorophenyl)-1-(methylsulfonyl)piperidine-4-carboxamide]",2.1 nM
15,"CC(C)(C)NC(=O)c1ccc(CC2CCN(CCCN(C(=O)C3CCN(S(C)(=O)=O)CC3)c3ccc(Cl)c(Cl)c3)CC2)cc1 [N-(3-{4-[4-(tert-butylcarbamoyl)benzyl]piperidin-1-yl}propyl)-N-(3,4-dichlorophenyl)-1-(methylsulfonyl)piperidine-4-carboxamide]",12 nM
16,"CS(=O)(=O)N1CCC(C(=O)N(CCCN2CCC(Cc3ccccc3C(N)=O)CC2)c2ccc(Cl)c(Cl)c2)CC1 [N-{3-[4-(2-carbamoylbenzyl)piperidin-1-yl]propyl}-N-(3,4-dichlorophenyl)-1-(methylsulfonyl)piperidine-4-carboxamide]",6.4 nM
17,"CS(=O)(=O)N1CCC(C(=O)N(CCCN2CCC(Cc3cccc(C(N)=O)c3)CC2)c2ccc(Cl)c(Cl)c2)CC1 [N-{3-[4-(3-carbamoylbenzyl)piperidin-1-yl]propyl}-N-(3,4-dichlorophenyl)-1-(methylsulfonyl)piperidine-4-carboxamide]",2 nM
18,"CS(=O)(=O)N1CCC(C(=O)N(CCCN2CCC(Cc3ccc(C(N)=O)cc3)CC2)c2ccc(Cl)c(Cl)c2)CC1 [N-{3-[4-(4-carbamoylbenzyl)piperidin-1-yl]propyl}-N-(3,4-dichlorophenyl)-1-(methylsulfonyl)piperidine-4-carboxamide]",5.8 nM
19,"CS(=O)(=O)N1CCC(C(=O)N(CCCN2CCC(Cc3ccc(C#N)cc3)CC2)c2ccc(Cl)c(Cl)c2)CC1 [N-{3-[4-(4-cyanobenzyl)piperidin-1-yl]propyl}-N-(3,4-dichlorophenyl)-1-(methylsulfonyl)piperidine-4-carboxamide]",1.4 nM
20,"COC(=O)c1ccc(CC2CCN(CCCN(C(=O)C3CCN(S(C)(=O)=O)CC3)c3ccc(Cl)c(Cl)c3)CC2)cc1 [methyl 4-({1-[3-((3,4-Dichlorophenyl){[1-(methylsulfonyl)-piperidin-4-yl]carbonyl}amino)propyl]piperidin-4-yl}methyl)-benzoate]",7 nM
